Assays:
Assay type in all cases: in vivo
[1] = system: Johnsongrass (Sorghum halepense); test: post-emergence herbicidal activity, johnsongrass; settings: 1 Kg/Ha, about fourteen days, read-out: post-emergence herbicidal activity (% control) SORHA
How it was run: (§1)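 Percent control (0–100) was rated about fourteen days after spraying of emerged, germinated plants in flats with compound dissolved in water/acetone at 1 Kg/Ha.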

[2] = system: common cocklebur (Xanthium strumarium L.); test: pre-emergence herbicidal activity, cocklebur; settings: 1 kg/Ha, about fourteen days, read-out: pre-emergence herbicidal activity (% control) XANPE
How it was run: (§2)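 Seeds sown in flats of soil mix were sprayed pre-emergence with test compound in water/acetone at 1 kg/Ha. Flats were held about fourteen days beside untreated controls, then phytotoxicity was scored as percent control (0 = no effect, 100 = complete control).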

[3] = system: field corn (Zea mays var. Pioneer 3732); test: pre-emergence herbicidal activity, corn; settings: 1 kg/Ha, about fourteen days, read-out: pre-emergence herbicidal activity (% control) CRN
How it was run: as §2

[4] = system: blackgrass (Aloepecurus myosuroides); test: post-emergence herbicidal activity, blackgrass; settings: Alopecurus myosuroides, 1 Kg/Ha, about fourteen days, read-out: post-emergence herbicidal activity (% control) ALOMY
Protocol: (§3) This example sets forth the methods of herbicidal testing conducted on the specific compounds set forth below. Specifically, the compounds referenced below were tested for pre- and post-emergence herbicidal activity using a variety of crops and weeds. The test plants include, but are not limited to, soybean (Glycine max -- var. Winchester), field corn (Zea mays var. Pioneer 3732), wheat (Triticum aestivum var. Lew), morningglory (Ipomea lacunosa or Ipomea hederacea), velvetleaf (Abutilon theophrasti), green foxtail (Setaria viridis), Johnsongrass (Sorghum halepense), blackgrass (Aloepecurus myosuroides), common chickweed (Stellaria media), and common cocklebur (Xanthium strumarium L.).
(§4) In the post-emergence test, seeds of the plant species named above were planted in flats containing the appropriate soil mixture where they were maintained to allow the seeds to germinate. When the plants in these flats reached the proper stage of growth, flats for the pre-emergence tests were planted in a like manner. The flats containing the post-emergence and pre-emergence test plant species were then sprayed with an appropriately concentrated water/acetone solution of test compound. Once treated the flats were maintained, along with untreated controls, for about fourteen days. All treated plants were then examined for phytotoxicity, which was expressed as percent control where 0 is no effect and 100 is complete control. Effective rates of application for the compounds of the present invention range from 0.001 to 3 kg/ha, more likely from […] to 1 Kg/ha.
(§5) Herbicidal activity data at selected application rates are in Tables 4 and 5. The test compounds are identified by numbers correspond to those in Table 1.
(§6) SOY is soybean, WHT is wheat, CRN is corn, ABUTH is velvetleaf, IPOSS is
morningglory, STEME is chickweed, XANPE is cocklebur, ALOMY is blackgrass,
Rate of application of test compound is 1 Kg/Ha. The definitions as shown under Table 4 apply to Table 5.

[5] = system: soybean (Glycine max -- var. Winchester); test: pre-emergence herbicidal activity, soybean; settings: 1 kg/Ha, about fourteen days, read-out: pre-emergence herbicidal activity (% control) SOY
How it was run: as §2

[6] = system: velvetleaf (Abutilon theophrasti); test: pre-emergence herbicidal activity, velvetleaf; settings: 1 kg/Ha, about fourteen days, read-out: pre-emergence herbicidal activity (% control) ABUTH
How it was run: as §2

[7] = system: velvetleaf (Abutilon theophrasti); test: post-emergence herbicidal activity, velvetleaf; settings: 1 Kg/Ha, about fourteen days, read-out: post-emergence herbicidal activity (% control) ABUTH
How it was run: as §1

[8] = system: wheat (Triticum aestivum var. Lew); test: pre-emergence herbicidal activity, wheat; settings: 1 kg/Ha, about fourteen days, read-out: pre-emergence herbicidal activity (% control) WHT
How it was run: as §2

[9] = system: morningglory (Ipomea lacunosa or Ipomea hederacea); test: pre-emergence herbicidal activity, morningglory; settings: Ipomoea, 1 kg/Ha, about fourteen days, read-out: pre-emergence herbicidal activity (% control) IPOSS
How it was run: as §2

[10] = system: green foxtail (Setaria viridis); test: post-emergence herbicidal activity, green foxtail; settings: 1 Kg/Ha, about fourteen days, read-out: post-emergence herbicidal activity (% control) SETVI
How it was run: as §1

[11] = system: wheat (Triticum aestivum var. Lew); test: post-emergence herbicidal activity, wheat; settings: 1 Kg/Ha, about fourteen days, read-out: post-emergence herbicidal activity (% control) WHT
How it was run: as §1

[12] = system: common chickweed (Stellaria media); test: pre-emergence herbicidal activity, chickweed; settings: 1 kg/Ha, about fourteen days, read-out: pre-emergence herbicidal activity (% control) STEME
How it was run: as §2

[13] = system: morningglory (Ipomea lacunosa or Ipomea hederacea); test: post-emergence herbicidal activity, morningglory; settings: Ipomoea, 1 Kg/Ha, about fourteen days, read-out: post-emergence herbicidal activity (% control) IPOSS
How it was run: as §1

[14] = system: green foxtail (Setaria viridis); test: pre-emergence herbicidal activity, green foxtail; settings: 1 kg/Ha, about fourteen days, read-out: pre-emergence herbicidal activity (% control) SETVI
How it was run: as §2

[15] = system: soybean (Glycine max -- var. Winchester); test: post-emergence herbicidal activity, soybean; settings: 1 Kg/Ha, about fourteen days, read-out: post-emergence herbicidal activity (% control) SOY
How it was run: as §1

[16] = system: field corn (Zea mays var. Pioneer 3732); test: post-emergence herbicidal activity, corn; settings: 1 Kg/Ha, about fourteen days, read-out: post-emergence herbicidal activity (% control) CRN
How it was run: as §1

[17] = system: common chickweed (Stellaria media); test: post-emergence herbicidal activity, chickweed; settings: 1 Kg/Ha, about fourteen days, read-out: post-emergence herbicidal activity (% control) STEME
How it was run: as §1

[18] = system: common cocklebur (Xanthium strumarium L.); test: post-emergence herbicidal activity, cocklebur; settings: 1 Kg/Ha, about fourteen days, read-out: post-emergence herbicidal activity (% control) XANPE
How it was run: as §1

[19] = system: Johnsongrass (Sorghum halepense); test: pre-emergence herbicidal activity, johnsongrass; settings: 1 kg/Ha, about fourteen days, read-out: pre-emergence herbicidal activity (% control) SORHA
Protocol: as §3, §4, §5
Rate of application of test compound is 1 kg/Ha
as §6
morningglory, STEME is chickweed, XANPE is cocklebur, ALOMY is blackgrass, […]

[20] = system: blackgrass (Aloepecurus myosuroides); test: pre-emergence herbicidal activity, blackgrass; settings: Alopecurus myosuroides, 1 kg/Ha, about fourteen days, read-out: pre-emergence herbicidal activity (% control) ALOMY
How it was run: as §2

Row | Structure (SMILES) | activity at 1000 g/ha [1] [%] | activity at 1000 g/ha [2] [%] | activity at 1000 g/ha [3] [%] | activity at 1000 g/ha [4] [%] | activity at 1000 g/ha [5] [%] | activity at 1000 g/ha [6] [%] | activity at 1000 g/ha [7] [%] | activity at 1000 g/ha [8] [%] | activity at 1000 g/ha [9] [%] | activity at 1000 g/ha [10] [%] | activity at 1000 g/ha [11] [%] | activity at 1000 g/ha [12] [%] | activity at 1000 g/ha [13] [%] | activity at 1000 g/ha [14] [%] | activity at 1000 g/ha [15] [%] | activity at 1000 g/ha [16] [%] | activity at 1000 g/ha [17] [%] | activity at 1000 g/ha [18] [%] | activity at 1000 g/ha [19] [%] | activity at 1000 g/ha [20] [%]
1 | CC(C)N1Cc2c(ccc(Cl)c2-n2c(=O)cc(C(F)(F)F)n(C)c2=O)C1=O [Compound 1] | 100 | 70 | 95 | 75 | 90 | 100 | 100 | 80 | 100 | 80 | 70 | 90 | 70 | 100 | 95 | 90 | 50 | 60 | 90 | 80
2 | CC(C)N1Cc2c(-n3c(=O)cc(C(F)(F)F)n(C)c3=O)ccc(Cl)c2C1=O [Compound 3, 3-[7-chloro-2-(1-methylethyl)isoindolin-1-on-4-yl]-1-methyl-6-trifluoromethyl-2,4(1H,3H)-pyrimidinedione] | 100 | 100 | 100 | 100 | 100 | 100 | 100 | 100 | 100 | 100 | 100 | 100 | 100 | 100 | 95 | 100 | 100 | 100 | 100 | 100
3 | CC(C)N1Cc2c(c(Cl)cc(Cl)c2-n2c(=O)cc(C(F)(F)F)n(C)c2=O)C1=O [Compound 4] | 100 | 100 | 100 | 100 | 100 | 100 | 100 | 100 | 100 | 100 | 100 | 100 | 100 | 100 | 100 | 100 | 100 | 100 | 100 | 100
4 | CCN1Cc2c(c(Cl)cc(Cl)c2-n2c(=O)cc(C(F)(F)F)n(C)c2=O)C1=O [Compound 5] | 100 | 100 | 100 | 100 | 100 | 100 | 100 | 100 | 100 | 100 | 100 | 100 | 100 | 100 | 95 | 100 | 100 | 100 | 100 | 100

From patent publication US6277847A, “Herbicidal isoindolinonyl-and 3,4-dihydroisoquinolonyl-substituted heterocycles” (FMC Corporation, priority 2000, dated 2001)
